Counter-ions that a name gives are not always drawn. Like-named read-outs stand apart in the source and are kept apart here.
Key:
[1] = tested on: histamine release from human leukocytes (basophils); experiment: Human basophil assay: inhibition of anti-IgE-induced (IgE-mediated) histamine release; assay type: cell-based; conditions: for IC50: Leukocyte; for inhibition of histamine release in human basophils (in words): IgE-mediated, in vitro
Protocol: In the experiments reported by this example compounds in accordance with the invention are evaluated to determine their ability to inhibit the IgE-mediated release of histamine from sensitized peripheral leucocytes (basophils). Separation of leukocytes is accomplished by a modification of the method of L. Lichtenstein and A. Osler, J. Exp. Med. 120: 507 (1964). Heparinized human blood (80-100 ml) is mixed with 20 ml of saline (0.2%) containing 0.6 g of dextrose and 1.2 g of dextran in propylene centrifuge tubes. The mixture is kept at ambient temperature for 60-90 minutes to allow the separation of erythrocytes from the platelet-leukocyte-rich supernate. The supernate is removed and centrifuged for 8 minutes at 10×g in the cold. The leukocyte pellet is washed twice with Tris buffer and finally suspended in 150-180 ml Tris-ACM buffer at 1-2×10^6 cells/ml. The reaction is carried out in 12×75 mm plastic tubes at a total volume of […]. The reaction medium includes 0.05 ml rabbit anti-human IgE, 0.2 ml of the test compound in Tris-ACM buffer at concentrations ranging from 10-1000 μM, and 1.0 ml of the leukocyte suspension. The reaction mixture is incubated in a 37° C. shaking water bath for 60 minutes. Upon completion of the reaction, the tubes are centrifuged and the supernatants collected. The protein is removed from the supernatants by precipitation with 0.2 ml of 8% perchloric acid. Histamine release is measured by the automated fluorometric method of W Siraganian and W. Hook in Chapter 108, pages 808-821 of the Manual of Clinical Immunology, 2nd Edition, edited by R. Rose and H. Friedman, published by the American Society for Microbiology, Washington, D.C., 1980. Percent inhibition is calculated as follows: [formula] The concentration which causes a 50 percent inhibition (1C50) of histamine release is interpolated from a plot of percent inhibition versus the logarithm of drug concentration.

[2] = tested on: histamine release from basophils activated by ionophore A-23187; experiment: Human basophil assay: inhibition of histamine release induced by non-immunological ionophore A-23187; assay type: cell-based; conditions: 1000-fold test dosage range
Protocol: Separation of leukocytes is accomplished by a modification of the method of L. Lichtenstein and A. Osler, J. Exp. Med. 120: 507 (1964). Heparinized human blood (80-100 ml) is mixed with 20 ml of saline (0.2%) containing 0.6 g of dextrose and 1.2 g of dextran in propylene centrifuge tubes. The mixture is kept at ambient temperature for 60-90 minutes to allow the separation of erythrocytes from the platelet-leukocyte-rich supernate. The supernate is removed and centrifuged for 8 minutes at 10×g in the cold. The leukocyte pellet is washed twice with Tris buffer and finally suspended in 150-180 ml Tris-ACM buffer at 1-2×10^6 cells/ml.
The reaction is carried out in 12×75 mm plastic tubes at a total volume of 1.23 ml. […] The reaction mixture is incubated in a 37° C. shaking water bath for 60 minutes. Upon completion of the reaction, the tubes are centrifuged and the supernatants collected. The protein is removed from the supernatants by precipitation with 0.2 ml of 8% perchloric acid.
Histamine release is measured by the automated fluorometric method of W Siraganian and W. Hook in Chapter 108, pages 808-821 of the Manual of Clinical Immunology, 2nd Edition, edited by R. Rose and H. Friedman, published by the American Society for Microbiology, Washington, D.C., 1980. Percent inhibition is calculated as follows: [formula] […]

lipoxygenase pathway = experiment: Blocking the metabolic conversion of arachidonic acid in the lipoxygenase pathway; conditions: no method or data given
[3] = 1 h, human basophils, rabbit anti-human IgE, 37° C., 60 minutes, read-out: IN VITRO INHIBITION OF HISTAMINE RELEASE IC50

| SMILES | IC50 [1, 3] [µM] | also measured |
| --- | --- | --- |
| Clc1ccc(CN2CCN(CCSSCCN3CCN(Cc4ccc(Cl)cc4)CC3)CC2)cc1 [Example 2, 1,1'-(dithiodi-2,1-ethanediyl)bis[4-(4-chlorobenzyl)piperazine]tetrahydrochloride] | 2.4 | IC50 ([1]; Homo sapiens, anti-IgE, further repetition of testing, read-out: IC50 (histamine release), further repetition): 5.29 µM; IC50 ([1]; Homo sapiens, anti-IgE, range of concentrations up to the limits of its solubility, read-out: IC50 (histamine release)): 3.7 µM; IC50 [2]: 2.67 µM; blocking the metabolic conversion of arachidonic acid in the lipoxygenase pathway (in words) (lipoxygenase pathway): effective in blocking |
| [O-][S+](CCCN1CCN(Cc2ccc(Cl)cc2)CC1)CCCN1CCN(Cc2ccc(Cl)cc2)CC1 [Example 6, 1,1'-(sulfinyl-3,1-propanediyl) bis[4-(4-chlorobenzyl)piperazine] tetrahydrochloride] | 5.6 | – |
| O=S(=O)(CCCN1CCN(Cc2ccc(Cl)cc2)CC1)CCCN1CCN(Cc2ccc(Cl)cc2)CC1 [Example 7, 1,1'-(sulfonyl-3,1-propanediyl) bis[4-(4-chlorobenzyl)piperazine] tetrahydrochloride] | 3.4 | – |
| Clc1ccc(CN2CCN(CCCSCCN3CCN(Cc4ccc(Cl)cc4)CC3)CC2)cc1 [Example 4, {2-[4-(4-chlorobenzyl)piperazin-1-yl)ethyl}{3-[4-(4-chlorobenzyl)piperazin-1-yl]propyl}sulfide tetrahydrochloride] | 2.4 | – |
| Clc1ccc(CN2CCN(CCCSSCCCN3CCN(Cc4ccc(Cl)cc4)CC3)CC2)cc1 [Example 1, 1,1'-(Dithiodi-3,1-propanediyl)bis[4-(4-chlorobenzyl)piperazine]] | 2 | – |
| Cc1ccccc1CN1CCN(CCSSCCN2CCN(Cc3ccccc3C)CC2)CC1 [Example 3, 1,1'-(dithiodi-2,1-ethanediyl)bis[4-(2-methylbenzyl)piperazine]tetrahydrochloride] | 15 | – |
| N#Cc1ccc(CN2CCN(CCSSCCN3CCN(Cc4ccc(C#N)cc4)CC3)CC2)cc1 [Example 8, 1,1'-(dithiodi-2,1-ethanediyl)bis[4-(4-cyanobenzyl)piperazine] tetrahydrochloride] | 28 | – |
| Clc1ccc(CN2CCN(CCCSCCCN3CCN(Cc4ccc(Cl)cc4)CC3)CC2)cc1 [Example 5, 1,1'-(thio-3,1-propanediyl) bis-[4-(4-chlorobenzyl)piperazine] tetrahydrochloride] | 1.9 | – |

More lines, main results first:

| IC50 [1, 3] [µM] | SMILES | also measured |
| --- | --- | --- |
| 13.7 | c1ccc(CN2CCN(CCCSSCCCN3CCN(Cc4ccccc4)CC3)CC2)cc1 [Example 9, 1,1'-(dithiodi-3,1-propanediyl)bis(4-benzylpiperazine) tetrahydrochloride] | – |
| > 1000 | Cl.Cl.Cl.Cl.Clc1ccc(CCCN2CCN(CCSSCCN3CCN(CCCc4ccc(Cl)cc4)CC3)CC2)cc1 [Example 13, 1,1'-(dithiodi-2,1-ethanediyl)bis{4-[3-(4-chlorophenyl)propyl]piperazine} tetrahydrochloride] | inhibition of histamine release in human basophils (in words) [1]: absence of observed activity |
| 4.7 | Cc1ccc(CN2CCN(CCSSCCN3CCN(Cc4ccc(C)cc4)CC3)CC2)cc1 [Example 12, 1,1'-(dithiodi-2,1-ethanediyl)bis[4-(4-methylbenzyl)piperazine] tetrahydrochloride] | – |
| > 1000 | Clc1ccc(CN2CCCN(CCCSSCCCN3CCCN(Cc4ccc(Cl)cc4)CC3)CC2)cc1 [Example 11, 1,1'-(dithiodi-3,1-propanediyl)bis[4-(4-chlorobenzyl)homopiperizine] tetrahydrochloride] | inhibition of histamine release in human basophils (in words) [1]: absence of observed activity |
| > 1000 | Cl.Cl.Cl.Cl.Clc1ccc(CCN2CCN(CCCSSCCCN3CCN(CCc4ccc(Cl)cc4)CC3)CC2)cc1 [Example 10, 1,1'-(dithiodi-3,1-propanediyl)-bis [4-(4-chlorophenethyl)piperazine] tetrahydrochloride] | inhibition of histamine release in human basophils (in words) [1]: absence of observed activity |

Source: US4692448A, “Bis(arylpiperazinyl)sulfur compounds” (Boehringer Ingelheim Pharmaceuticals, Inc., priority 1984, dated 1987)
